Laboratory results reported in patent US20220152160A1, “DOSING REGIMEN” (Novo Nordisk A/S, priority 2013, published 2022).

Key:
[1] = tested on: insulin-naïve participants with T2DM; assay: Clinical Trial 1 (26-week, treat-to-target): glycaemic control (HbA1c, FPG), IDeg U-200 vs IGlar; type: in vivo, human; conditions: whole population
From the text: (§1) This phase 3a, 26-week, randomized, controlled, open-label, multinational, treat-to-target, non-inferiority trial compared the efficacy and safety of IDeg U-200 (i.e. 200 U/mL) and IGlar (100 U/mL) both administered OD in combination with metformin (met) ±DPP-4 inhibitor in insulin-naïve participants with T2DM previously treated with oral antidiabetic drugs OAD(s), who qualified for intensification of treatment. The trial was open-label because the pen devices used to administer the basal insulins were distinctively different and blinding was, therefore, impossible.
Participants who were insulin-naïve adults with T2DM for at least 6 months, HbA1, 7-10% (inclusive), BMI s 45 kg/m^2, and previously treated with metformin with or without additional OADs for at least 3 months were eligible to participate in the study.
(§2) Using the interactive voice/web response system, eligible participants were randomized 1:1 to either once-daily IDeg U-200 (IDeg 200 U/mL, 3 mL FlexTouch®, Novo Nordisk, Bagsvård, Denmark) or once-daily IGlar (Lantus® 100 U/mL, 3 mL SoloStar® Sanofi Aventis U.S. LLC) and continued metformin ±DPP-4 inhibitor treatment. Trial participants were instructed to continue the same total daily dose of metformin and DPP-4 inhibitor treatment as before the start of the trial.
(§3) Insulin degludec was administered once-daily with the main evening meal and, consistent with its product labelling, IGlar was administered once-daily (OD) at the same time each day. Either treatment was injected subcutaneously in the thigh, upper arm or abdomen. The starting dose for each was 10 U, and during the treatment period, the insulin dose was systematically titrated using a treat-to-target approach striving for a pre-breakfast self-measured plasma glucose (SMPG) level of 4.0-4.9 mmol/L (71-89 mg/dL). Both IDeg and IGlar were similarly titrated once weekly in 2 U increments. The treatment period was 26 weeks and doses were individually titrated in an effort to achieve the same glucose targets with both treatments.
The primary endpoint for this study was change in HbA1c (%) from baseline after 26 weeks of treatment. Secondary confirmatory endpoints tested were number of treatment-emergent confirmed hypoglycaemic episodes, change from baseline in central laboratory-measured fasting plasma glucose (FPG), within subject variability as measured by coefficient of variation (%), and frequency of participants achieving HbA1c<7% without hypoglycaemic episodes. The supportive secondary endpoints included 9-point SMPG profiles, frequency of participants achieving HbA1c<7%, and Health-Related Quality of Life (HRQoL; Short Form 36 [SF-36 v.2] questionnaire) scores. The safety assessments were adverse events, hypoglycaemic episodes, insulin dose, body weight, physical examination, vital signs, fundoscopy, electrocardiogram (ECG) and laboratory tests (including antibodies). Confirmed hypoglycaemic episodes were defined as episodes with a PG value of <3.1 mmol/L (56 mg/dL) and severe episodes requiring assistance.^7 Hypoglycaemic episodes occurring between 00:01 h and 05:59 h (inclusive) were classified as nocturnal.
Analyses of all efficacy endpoints were based on the full analysis set (FAS) which included all randomized participants. The safety analysis set included all participants who received at least one dose of the investigational product or the comparator. Missing values were imputed using the last observation carried forward (LOCF) method.
The primary objective of this trial was to confirm the non-inferiority of IDeg U-200 OD to IGlar OD as assessed by change in HbA1c from baseline after 26 weeks of treatment. Non-inferiority was confirmed if the upper limit of the 95% confidence interval (Cl) for the treatment difference was 50.4%. […]

[2] = tested on: insulin-naïve participants with T2DM; conditions: human, in vivo
From the text: as §1, §2, §3
The primary endpoint for this study was change in HbA1c (%) from baseline after 26 weeks of treatment. Secondary confirmatory endpoints tested were number of treatment-emergent confirmed hypoglycaemic episodes, change from baseline in central laboratory-measured fasting plasma glucose (FPG), within subject variability as measured by coefficient of variation (%), and frequency of participants achieving HbA1c<7% without hypoglycaemic episodes. […]
Treatment difference in change from baseline in HbA1c after 26 weeks was analyzed using an Analysis of Variance (ANOVA) model with treatment, antidiabetic treatment at screening, sex and region (Europe, North America, or South Africa) as fixed factors, and age and baseline HbA1c as covariates. […] The number of treatment-emergent confirmed hypoglycaemic episodes was analyzed using a negative binomial regression model including treatment, antidiabetic therapy at screening, sex and region as fixed factors, and age as covariate. […]

[3] = in vivo; cited from earlier work

With “NεB29-(Nα—(HOOC(CH2)14CO)-γ-Glu)des(B30)-human insulin [insulin degludec]” the “non-inferiority to IGlar in change in HbA1c from baseline” value ([1]; 26 weeks) was “non-inferiority”, the “estimated treatment difference (ETD) IDeg-IGlar in change in HbA1c” value ([1]; 26 weeks, 95% CI −0.11, 0.19) was 0.04 and the “ETD in FPG (IDeg vs IGlar)” value ([1]; 26 weeks, 95% CI −0.78, −0.06) was −0.42. For the same substance, the “Central laboratory-measured FPG decrease” value ([1]; after 26 weeks) was 4.0 mmol/L, the “Central laboratory-measured FPG reached” value ([1]; after 26 weeks) was 5.7 mmol/L and the “FPG reduction compared with IGlar” value ([1]; after 26 weeks) was “statistically significantly greater FPG reduction”. For the same substance, the “%: Percentage of subjects experiencing at least one episode” value [2] was 6.1%, the “ERR IDeg/IGlar, nocturnal confirmed hypoglycaemia” value [2] was 0.64 and the “estimated rate ratio (ERR) IDeg/IGlar, confirmed hypoglycaemia” value [2] was 0.86. The “rate of nocturnal confirmed hypoglycaemic episodes” value [2] was 0.18 episodes/patient-year and the duration of action [3] was “greater than 42 hours”.
